Experimental data taken from US20110178016A1, “PULSE PARATHYROID HORMONE FOR TREATMENT OF THE HEM[…], STROMAL CELL LOSS, AND VASCULAR INJURY RESULTING FROM ACUTE EXPOSURE TO LETHAL RADIATION” (priority 2008, published 2011).
“Also recorded” adds a separate entry of the source.

Tests used:
[1] = test system: macaque monkeys following chemo-ablative therapy and MHC mis-matched allogeneic stem cell transplant; test: Daily PTH after chemo-ablative conditioning and MHC mismatched allogeneic stem cell transplant; type: in vivo
Text: A previously unrecognized role for PTH on mitigation of myelosuppression in macaque monkeys is described. Following chemo-ablative therapy and MHC mis-matched allogeneic stem cell transplant, animals were randomized to daily PTH treatment (5 mcg/kg/day subcutaneously) or placebo. […] Following myeloablation, PTH may act to increase megakaryopoiesis through increased production of HSC.
(§1) Bone marrow transplant studies by Calvi and colleagues characterized this process in the syngeneic mouse model of osteoblastic activation. To see if PTH could enhance allogeneic stem cell engraftment in nonhuman primates (monkeys), donors were MHC mismatched based on recipient proliferation against donor cells in the mixed lymphocyte culture and by disparity at the class I antigen, Bw6. This disparity permitted tracking of Bw6+ donor cells following transplantation into Bw6-recipients. Eight control recipients were conditioned with thymoglobulin, rituxan, fludarabine, and melphalan. Six animals received the conditioning regimen supplemented with parathyroid hormone beginning on the first day of the conditioning regimen and administered daily at a dose of 5 micrograms/kg subcutaneously. An allogeneic stem cell transplant consisting of 2−4×10^6 CD34+cells/kg was administered on day 0. Outcome measures included PTH levels, CBCs, and donor engraftment via flow cytometry.

[2] = PTH levels after subcutaneous administration in transplanted monkeys; type: in vivo, nonhuman primates (monkeys); details: 5 micrograms/kg subcutaneously
Text: as §1

[3] = test system: mice exposed to lethal radiation (772 cGy); test: Survival of mice after lethal irradiation (772 cGy) with PTH treatment; type: in vivo, B6 mice; details: for Thirty day survival: no treatment 50%; for 49 day survival: vehicle 60%
Method: In a study of 98 mice exposed to lethal irradiation, half received placebo (saline) and half received daily PTH 80 mcg/kg/day for 28 days. There was a survival advantage in the PTH treated group, 24/49 survived vs placebo, 16/49, (95% CI, 0.7707, 2.462).
80 ug/day PTH therapy followed lethal irradiation (772 cGy) exposure. 49 mice were treated with daily PTH (80 mcg/kg/d sc×28 days) 24 hours following a lethal radiation exposure of 772 cGy and compared to 49 vehicle treated control animals. Outcome measures included platelet counts, survival, and other hematopoietic studies. When censoring for technical deaths, 46 animals were analyzed in the placebo group (daily saline injections) with 47 analyzed from the daily PTH 80 mcg/kg/day treatment. […] Thirty-day survival in the placebo group was 18/46 or 39%. Of the PTH treated animals 26/47 animals survived (55%, p=0.2).
In another set of dose finding experiments, the same radiation exposure was used (772 cGy). Three treatment groups were studied: (1) untreated (no placebo, n=8), (2) treated with 200 mcg/kg PTH daily beginning 24 hours after radiation exposure, n=12, (3) treated with 200 mcg/kg PTH twice daily beginning 24 hours after radiation exposure, n=12.
Comparison was made of animals treated with PTH, 200 ug/day, 200 ug twice daily (BID) vs those receiving no PTH treatment following lethal irradiation (772 cGy).
Three groups of B6 mice underwent irradiation.
Group 1 received no treatment, n=8.
Group 2 received PTH, 200 micrograms/kg/day, n=10, first begun 24 hours following radiation exposure to 772 cGy and continued for 28 days.
Group 3 received the same duration of PTH but instead was treated twice daily, 200 micrograms/kg/day BID for a daily total dose of 400 mcg/kg/day, n=12.
Four cohorts of B6 mice were irradiated to uniform, total body, midline tissue dose at a dose rate of 80+2.5 cGy/min to a dose of 772 cGy.
Group 1 received vehicle control (saline) treatment×28 days, beginning 24 hours after radiation, n=10.
Group 2 received PTH, 400 micrograms/kg/day, n=10, first begun 24 hours following radiation exposure to 772 cGy and continued for 28 days.
Group 3 received PTH, 1000 micrograms/kg/day, n=10, 24 hours following radiation, and then 400 mcg/kg/day for 7 days.
Group 4 received PTH, 400 micrograms/kg/day, n=10, 24 hours following radiation, and continued for 7 days.

[4] = test system: bone marrow colony forming units / CD34+ hematopoietic stem cells; test: Bone marrow CFU and CD34+ cells in non-irradiated monkeys 24 hours after first PTH dose; type: in vivo, cynomolgus monkeys; details: non-irradiated CYNOs
Method: (§2) Two cynomolgus monkeys (hereafter referred to as CYNOs) were treated with a 21 day course of daily subcutaneous PTH at either 100 mcg/kg (monkey 7801) or 50 mcg/kg (monkey 7872). Hematopoietic outcome measures included:
(a) bone marrow analysis for colony forming units 24 hours after first dose of PTH;
(b) bone marrow analysis for CD34+ hematopoietic stem cells 24 hours after first dose of PTH;

cynomolgus monkeys = test: Toxicity studies of a 21 day course of PTH in monkeys (cardiac monitoring, serum calcium, kidney MRI); type: in vivo
Method: as §2
(d) MRI of the kidneys upon completion of the 21 day course.
Three cynomolgus monkeys (hereafter referred to as CYNOs) were treated with a 21 day course of daily subcutaneous PTH at either 50 ug/kg (7872), 100 ug/kg (7801), or 250 ug/kg (7876).
Two were irradiated (7801 and 7875) at a lethal dose of 682 cGy and administered 100 ug/kg. Of note, 7801 underwent a washout period prior to undergoing irradiation and subsequent PTH therapy
Outcome measures included:
(a) continuous cardiac monitoring and serum calcium
(e) MRI of the kidneys upon completion of the 21 day course.

rat = details: prolonged daily dosing, 4 months-2 years; cited from earlier work
monkeys = details: prolonged daily dosing, 4 months-2 years; cited from earlier work
[5] = clinical studies, cited from earlier work
[6] = macaques, PTH 5 mcg/kg/day sc, statistical significance by 4 weeks
[7] = CYNOs, 21 day course, 100 mcg/kg or 50 mcg/kg
[8] = highest dose, 250 ug/kg, administered for 21 days

CC[C@H](C)[C@H](NC(=O)[C@H](CCC(=O)O)NC(=O)[C@H](CO)NC(=O)[C@@H](NC(=O)[C@@H](N)CO)C(C)C)C(=O)N[C@@H](CCC(N)=O)C(=O)N[C@@H](CC(C)C)C(=O)N[C@@H](CCSC)C(=O)N[C@@H](Cc1cnc[nH]1)C(=O)N[C@@H](CC(N)=O)C(=O)N[C@@H](CC(C)C)C(=O)NCC(=O)N[C@@H](CCCCN)C(=O)N[C@@H](Cc1cnc[nH]1)C(=O)N[C@@H](CC(C)C)C(=O)N[C@@H](CC(N)=O)C(=O)N[C@@H](CO)C(=O)N[C@@H](CCSC)C(=O)N[C@@H](CCC(=O)O)C(=O)N[C@@H](CCCN=C(N)N)C(=O)N[C@H](C(=O)N[C@@H](CCC(=O)O)C(=O)N[C@@H](Cc1c[nH]c2ccccc12)C(=O)N[C@@H](CC(C)C)C(=O)N[C@@H](CCCN=C(N)N)C(=O)N[C@@H](CCCCN)C(=O)N[C@@H](CCCCN)C(=O)N[C@@H](CC(C)C)C(=O)N[C@@H](CCC(N)=O)C(=O)N[C@@H](CC(=O)O)C(=O)N[C@H](C(=O)N[C@@H](Cc1cnc[nH]1)C(=O)N[C@@H](CC(N)=O)C(=O)N[C@@H](Cc1ccccc1)C(=O)O)C(C)C)C(C)C [PTH, Teriparatide]
hemoglobin (serial CBCs) ([1]; PTH group vs control group): no significant difference
engrafting donor B cells ([1]; macaques, PTH 5 mcg/kg/day sc): significantly increased
host (recipient) T cells ([1]; macaques, PTH 5 mcg/kg/day sc): no significant increase; also recorded: little or no effect
host or donor myeloid lineage CD14 or CD11b+ cells ([1]; macaques, PTH 5 mcg/kg/day sc): no significant increase
engrafting donor T cells (CD4 and CD8 subsets) ([1]; macaques, PTH 5 mcg/kg/day sc vs control): significant increases; also recorded: significantly increased; also recorded: increased over control animals
engrafting donor CD34+ cells [1, 6]: significantly increased; also recorded: significant increases
host CD34+ stem cells [1, 6]: significantly increased; also recorded: significant increases
platelet counts in peripheral blood ([1]; macaques, PTH 5 mcg/kg/day subcutaneously vs untreated controls, first observed 7 days after PTH therapy): statistically significant increase; also recorded: increased levels of platelets
recipient granulocytes or natural killer cells ([1]; macaques, PTH 5 micrograms/kg sc daily): No effect
iliac crest bone biopsy findings after vs before PTH treatment ([1]; monkeys 7150 and 7154, 5 weeks after PTH treatment): increased cortical bone, increased osteoblasts, and loss of adiposity; also recorded: adiposity was reduced, and cortical bone formation increased
time by which PTH levels were undetectable [2]: ≤ 4 h
Tmax ([2]; monkey, in vivo, sc, read-out: time of peak PTH levels after administration (converted)): 30 min
survival (survived/total) ([3]; 98 mice, lethal irradiation, PTH 80 mcg/kg/day for 28 days, placebo 16/49): 24/49
reduction in mortality ([3]; 772 cGy, 200 mcg/kg experiments, LD50/30 changed to LD25/30): 25%
thrombocytopenia duration or nadir ([3]; 772 cGy, PTH 80 mcg/kg/day vs placebo): no significant difference
Thirty day survival ([3]; 772 cGy, PTH 200 mcg/kg daily for 28 days (8/12)): 67%
Thirty day survival ([3]; 772 cGy, PTH 200 mcg/kg twice daily for 28 days (9/12)): 75%
49 day survival ([3]; 772 cGy, PTH 400 mcg/kg/day x 7 days (Group 4), p=0.02): 100%
49 day survival ([3]; 772 cGy, PTH 400 micrograms/kg/day x 28 days (Group 2, 9/10), p=0.05): 90%
49 day survival ([3]; 772 cGy, PTH 1000 micrograms/kg/day then 400 mcg/kg/day for 7 days (Group 3, 9/10), p=0.05): 90%
preputial inflammation and abscess among survivors ([3]; 1000 mcg/kg dose group, control survivors 3/6): ⅙
30-day survival ([3]; 7 day course of PTH 400 mcg/kg/day following an LD50/30 radiation exposure): 100%
survival ([3]; daily or twice doses of PTH, lethal irradiation dose expected to result in 50% death of mice (summary)): 100%
preputial inflammation and abscess / infection among survivors ([3]; other PTH groups (400 mcg/kg/day x 28 days or x 7 days), control survivors 3/6): None were observed; also recorded: prevents infection
CFU-GM and CFU-M in bone marrow aspirates ([4]; 50 or 100 mcg/kg, 24 hours after first dose, more pronounced with higher dose): increases
Erythroid, megakaryocyte lineages (BFU, CFU-GEMM) in bone marrow aspirate ([4]; 50 or 100 mcg/kg, after first dose): increase
bone marrow analysis, all lineages, by PTH dose ([4]; 50 vs 100 mcg/kg): dose response
percent of CD34+ hematopoietic stem cells vs pre-treatment levels ([4]; 24 hours after first dose): increases
tolerability (cynomolgus monkeys; 250 ug/kg up to 19 days, non-irradiated cynomolgus monkey): well tolerated
Cardiac monitoring (cynomolgus monkeys; [7]): some shortening of the Qt segment but no life threatening arrythmias
serum calcium peak (cynomolgus monkeys; [7]): ≤ 11.5 mg/dL
time for serum calcium to return to normal range after dosing (cynomolgus monkeys; [7]): 6 to 10 h
T wave height and ST-intervals over time (cynomolgus monkeys; [8]): some decrease
arrhythmias (cynomolgus monkeys; [8]): No life-threatening arrhythmias
tolerance in toxicity studies (cynomolgus monkeys; irradiated and non-irradiated monkeys, doses comparable to doses to ameliorate radiation damage): tolerated
serum calcium levels (cynomolgus monkeys; irradiated monkeys 7875 and 7801, 100 ug/kg, exception day 19 for 7801): normal calcium levels except one timepoint
BUN or creatinine (cynomolgus monkeys; monkeys 7801 (100 mcg/kg) and 7872 (50 mcg/kg), 21 day course): No change
MRI examination of the kidneys (cynomolgus monkeys; monkeys 7801 (100 mcg/kg) and 7872 (50 mcg/kg), after 21 day course): no cystic degeneration or tumors
serum calcium level (cynomolgus monkeys; non-irradiated animal 7876, 250 ug/kg, 21st day of dosing, with some somnolent behavior): 17 mg/dL
toxicity during the first 20 days of dosing (cynomolgus monkeys; three non-irradiated cynomolgus monkeys, 50, 100, 250 ug/kg, calcium slightly elevated): did not experience toxicity
doses at which toxicity was observed (rat): exceeding 75 mcg/kg
doses at which toxicity was observed (monkeys): > 0.04 mg/kg
toxic effect ([5]; even with chronic treatment): no toxic effect
biological potency vs full-length PTH protein [5]: comparable biological potency
